# Earlier results as cited in US20210267912A1, “METHYL SULFONYL METHANE-CONTAINING COMPOSITION FOR PREVENTING OR ALLEVIATING OBESITY, FATTY LIVER, AND DIABETES” (priority 2018, published 2021).
# Details: animal toxicity test
smiles,measurement,value
CS(C)(=O)=O [Methylsulfonylmethane],Half lethal dose,more than 20 g per 1 kg of body weight
